Assay results published in patent publication US20110183969A1, “ANTIFUNGAL COMBINATION THERAPY” (priority 2008, published 2011).
Values after ≈ are worked out from the molar mass of the structure shown.

Columns and labels:
Experiment in all cases: MIC (YAG medium)
Assay type in all cases: cell-based
Aspergillus terreus AT49 = details: YAG medium, MIC banded into grades, AT49; for MIC: Aspergillus terreus, read-out: MIC A. terreus 49 (grade)
In short: (§1)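 Spores grown on Sabouraud agar and diluted in YAG medium (1% glucose, 1% ammonium chloride, 0.5% yeast extract) to final inocula of 1-2×10^4 cfu/mL over a 50-0.05 mg/L drug range. Read by OD485 after 24 hrs at 35° C. MIC (mg/L) is the lowest concentration inhibiting growth >70% versus drug-free control.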

Aspergillus flavus = details: YAG medium, MIC banded into grades; for MIC: Aspergillus flavus, read-out: MIC A. flavus (grade)
In short: as §1

[1] = system: Aspergillus fumigatus AF210; details: YAG medium, MIC banded into grades, AF210; for MIC: Aspergillus fumigatus, read-out: MIC A. fumigatus 210 (grade)
In short: as §1

Aspergillus niger = details: YAG medium, MIC banded into grades; for MIC: Aspergillus niger, read-out: MIC A. niger (grade)
In short: as §1

Aspergillus terreus AT4 = details: YAG medium, MIC banded into grades, AT4; for MIC: Aspergillus terreus, read-out: MIC A. terreus (grade)
In short: as §1

[2] = system: Aspergillus fumigatus AF293; details: YAG medium, MIC banded into grades, AF293; for MIC: Aspergillus fumigatus, read-out: MIC A. fumigatus (grade)
In short: as §1

| Compound | MIC (Aspergillus terreus AT49) [µg/mL] | MIC (Aspergillus flavus) [µg/mL] | MIC [1] [µg/mL] | MIC (Aspergillus niger) [µg/mL] | MIC (Aspergillus terreus AT4) [µg/mL] | MIC [2] [µg/mL] | MIC A. terreus 49 (grade) (Aspergillus terreus AT49) | MIC A. flavus (grade) (Aspergillus flavus) | MIC A. fumigatus 210 (grade) [1] | MIC A. niger (grade) (Aspergillus niger) | MIC A. terreus (grade) (Aspergillus terreus AT4) | MIC A. fumigatus (grade) [2] |
| --- | --- | --- | --- | --- | --- | --- | --- | --- | --- | --- | --- | --- |
| O=C(Nc1ccc(N2CCS(=O)(=O)CC2)cc1)C(=O)c1c(-c2ccccc2)cc2ccccn12 [Example 1, N-[4-(1,1-Dioxo-1λ^6-thiomorpholin-4-yl)-phenyl]-2-oxo-2-(2-phenyl-indolizin-3-yl)-acetamide] | > 10 | 1 to 10 (≈ 2.11 to 21.1 µM) | > 10 | > 10 | 1 to 10 (≈ 2.11 to 21.1 µM) | > 10 | – | – | – | – | – | – |
| Cc1cc(C)nc(N2CCC(O)(c3ccc(NC(=O)C(=O)c4c(-c5ccccc5)cc5ccccn45)cc3)CC2)c1 [Example 79, N-[4-(4-hydroxy-4′,6′-dimethyl-3,4,5,6-tetrahydro-2H-[1,2′]-bipyridinyl-4-yl)-phenyl]-2-oxo-2-(2-phenyl-indolizin-3-yl)-acetamide] | > 10 | > 10 | > 10 | > 10 | > 10 | > 10 | – | – | – | – | – | – |
| N-[4-(3-Ethyl-1H-imidazol-2yl methyl)-phenyl]-2-oxo-2-(2-o-tolyl-indolizin-3yl)-acetamide [Example 30] | – | – | – | – | – | – | 1 (a grade of 1 represents an MIC of greater than 10 mg/L) | 1 (a grade of 1 represents an MIC of greater than 10 mg/L) | 1 (a grade of 1 represents an MIC of greater than 10 mg/L) | 1 (a grade of 1 represents an MIC of greater than 10 mg/L) | 1 (a grade of 1 represents an MIC of greater than 10 mg/L) | 1 (a grade of 1 represents an MIC of greater than 10 mg/L) |
| CC(C)c1nccn1CCOC(=O)C(C)(C)c1ccc(NC(=O)C(=O)c2c(-c3ccccc3)cc3ccccn23)cc1 [Example 18, 2-methyl-2-{4-[2-oxo-2-(2-phenyl-indolizin-3-yl)-acetylamino]-phenyl}-propionic acid 2-(2-isopropyl-imidazol-1-yl)-ethyl ester] | 1 to 10 (≈ 1.78 to 17.8 µM) | > 10 | > 10 | > 10 | > 10 | > 10 | – | – | – | – | – | – |
| Cc1cc(C)nc(N2CCN(c3ccc(NC(=O)C(=O)c4c(-c5ccccc5)cc5ccccn45)c(C)c3)CC2)c1 [Example 80, N-{4-[4-(4,6-Dimethyl-pyridin-2-yl)-piperazin-1-yl]-2-methyl-phenyl}-2-oxo-2-(2-phenyl-indolizin-3-yl)-acetamide] | < 1 | < 1 | < 1 | < 1 | < 1 | < 1 | – | – | – | – | – | – |
| O=C(Nc1cnccc1N1CCN(Cc2cccs2)CC1)C(=O)c1c(-c2ccccc2)cc2ccccn12 [Example 37, 2-Oxo-2-(2-phenyl-indolizin-3-yl)-N-[4-{4-thiophen-2-ylmethyl-piperazin-1-yl}-pyridine-3-yl]-acetamide] | < 1 | < 1 | < 1 | < 1 | < 1 | < 1 | – | – | – | – | – | – |
| Cc1ccccc1-c1cc2ccccn2c1C(=O)C(=O)Nc1ccc(N2CCN(Cc3ccco3)CC2)cn1 [Example 35, N-[5-(2-Furan-2-yl-methyl-piperazin-yl)-peridin-2-yl]-2-oxo-2-(2-o-tolyl-indolizin-3-yl)-acetamide] | – | – | – | – | – | – | 3 (A grade of 3 represents an MIC of less than 1 mg/L) | 3 (A grade of 3 represents an MIC of less than 1 mg/L) | 3 (A grade of 3 represents an MIC of less than 1 mg/L) | 3 (A grade of 3 represents an MIC of less than 1 mg/L) | 3 (A grade of 3 represents an MIC of less than 1 mg/L) | 3 (A grade of 3 represents an MIC of less than 1 mg/L) |
| Cc1cc(C)nc(N2CCN(c3cccc(NC(=O)C(=O)c4c(-c5ccccc5)cc5ccccn45)c3)CC2)c1 [Example 48, N-{3-[4-(4,6-Dimethyl-pyridin-2-yl)-piperazin-1-yl]-phenyl}-2-oxo-2-(2-phenyl-indolizin-3-yl)-acetamide] | < 1 | < 1 | < 1 | < 1 | < 1 | < 1 | – | – | – | – | – | – |
| Cc1cc(C)nc(N2CCN(c3ccc(NC(=O)C(=O)c4c(C(C)C)cc5ccccn45)cc3)CC2)c1 [Example 61, N-{4-[4-(4,6-Dimethyl-pyridin-2-yl)-piperazin-1-yl]-phenyl}-2-(2-isopropyl-indolizin-3-yl)-2-oxo-acetamide] | < 1 | < 1 | < 1 | < 1 | < 1 | < 1 | – | – | – | – | – | – |
| COCc1cc(N2CCN(c3cc(C)cc(C)n3)CC2)ccc1NC(=O)C(=O)c1c(-c2ccccc2)cc2ccccn12 [Example 83, N-{4-[4-(4,6-Dimethyl-pyridin-2-yl)-piperazin-1-yl]-2-methoxymethyl-phenyl}-2-oxo-2-(2-phenyl-indolizin-3-yl)-acetamide] | < 1 | < 1 | < 1 | < 1 | < 1 | < 1 | – | – | – | – | – | – |
| O=C(Nc1ccccc1F)C(=O)c1c(-c2ccccc2)cc2ccc3ccccc3n12 [Example 4, N-(2-fluoro-phenyl)-2-oxo-2-(2-phenyl-pyrrolo[1,2-a]quinolin-1-yl)-acetamide] | > 10 | > 10 | > 10 | > 10 | > 10 | > 10 | – | – | – | – | – | – |
| Cc1cc(C)nc(N(C)CCNc2ccc(NC(=O)C(=O)c3c(-c4ccccc4)cc4ccccn34)cc2)c1 [Example 78, N-(4-{2-[(4,6-Dimethyl-pyridin-2-yl)-methyl-amino]-ethylamino}-phenyl)-2-oxo-2-(2-phenyl-indolizin-3-yl)-acetamide] | < 1 | < 1 | < 1 | < 1 | < 1 | < 1 | – | – | – | – | – | – |
| Cc1cc(C)nc(N2CCN(c3ccc(NC(=O)C(=O)c4c(-c5ccccc5)cc5ccccn45)cc3C)CC2)c1 [Example 82, N-{4-[4-(4,6-Dimethyl-pyridin-2-yl)-piperazin-1-yl]-3-methyl-phenyl}-2-oxo-2-(2-phenyl-indolizin-3-yl)-acetamide] | < 1 | < 1 | < 1 | < 1 | < 1 | < 1 | – | – | – | – | – | – |
| Cc1cc(C)nc(N2CCN(c3ccc(NC(=O)C(=O)c4c(C5CCCC5)cc5ccccn45)cc3)CC2)c1 [Example 47, 2-(2-Cyclopentyl-indolizin-3-yl)-N-{4-[4-(4,6-dimethyl-pyridin-2-yl)-piperazin-1-yl]-phenyl}-2-oxo-acetamide] | < 1 | < 1 | < 1 | < 1 | < 1 | < 1 | – | – | – | – | – | – |
| Cc1cc(C)nc(CCCCc2ccc(NC(=O)C(=O)c3c(-c4ccccc4)cc4ccccn34)cc2)c1 [Example 72, N-{4-[4-(4,6-Dimethyl-pyridin-2-yl)-butyl]-phenyl}-2-oxo-2-(2-phenyl-indolizin-3-yl)-acetamide] | < 1 | < 1 | < 1 | < 1 | < 1 | < 1 | – | – | – | – | – | – |
